Patent US8093396B2, “Benzthiazole inhibitors of poly(ADP-ribose)polymerase” (Abbott Laboratories, priority 2009, dated 2012)

What follows are compounds tested against PARP-1 (Homo sapiens, UniProt P09874) (assay: Inhibition of PARP by Compounds Having Formula I).
Type: biochemical

Chain of PARP-1 (P09874 whole entry, species assumed): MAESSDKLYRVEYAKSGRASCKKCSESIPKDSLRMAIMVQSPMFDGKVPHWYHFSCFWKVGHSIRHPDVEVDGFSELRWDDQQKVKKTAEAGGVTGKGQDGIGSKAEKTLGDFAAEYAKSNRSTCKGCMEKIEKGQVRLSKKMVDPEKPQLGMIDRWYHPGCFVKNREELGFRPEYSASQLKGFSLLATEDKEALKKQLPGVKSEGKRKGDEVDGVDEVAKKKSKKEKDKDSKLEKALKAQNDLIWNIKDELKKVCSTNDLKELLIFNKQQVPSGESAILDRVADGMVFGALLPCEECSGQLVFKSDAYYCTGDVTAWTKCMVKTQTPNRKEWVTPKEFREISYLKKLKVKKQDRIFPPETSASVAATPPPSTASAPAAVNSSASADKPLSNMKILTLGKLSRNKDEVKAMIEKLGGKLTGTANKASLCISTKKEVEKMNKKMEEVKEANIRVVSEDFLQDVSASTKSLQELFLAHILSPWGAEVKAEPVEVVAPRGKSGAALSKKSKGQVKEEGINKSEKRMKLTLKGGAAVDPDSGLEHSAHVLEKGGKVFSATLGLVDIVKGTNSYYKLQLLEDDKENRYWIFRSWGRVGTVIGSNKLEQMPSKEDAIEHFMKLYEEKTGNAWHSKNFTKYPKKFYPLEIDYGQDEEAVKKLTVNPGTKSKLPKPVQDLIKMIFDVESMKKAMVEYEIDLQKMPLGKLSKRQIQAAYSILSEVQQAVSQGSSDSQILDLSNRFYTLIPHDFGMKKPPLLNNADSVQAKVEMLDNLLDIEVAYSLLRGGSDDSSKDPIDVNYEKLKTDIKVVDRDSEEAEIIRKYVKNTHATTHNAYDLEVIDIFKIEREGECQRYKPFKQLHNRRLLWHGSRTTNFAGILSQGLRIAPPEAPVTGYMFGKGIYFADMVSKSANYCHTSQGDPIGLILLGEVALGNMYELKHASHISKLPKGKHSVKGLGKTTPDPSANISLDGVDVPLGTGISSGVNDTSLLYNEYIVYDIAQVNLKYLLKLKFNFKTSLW

Compound	Ki [nM]
NC(=O)c1cccc2sc(-c3ccc(-c4cccnc4)cc3)nc12 [Example 3, 2-(4-pyridin-3-ylphenyl)-1,3-benzothiazole-4-carboxamide]	9.5
NC(=O)c1cccc2sc(-c3ccc(-c4ccncc4)cc3)nc12 [Example 4, 2-(4-pyridin-4-ylphenyl)-1,3-benzothiazole-4-carboxamide]	26
NC(=O)c1cccc2sc(-c3ccc(-c4ccccc4)cc3)nc12 [Example 2, 2-(1,1′-biphenyl-4-yl)-1,3-benzothiazole-4-carboxamide]	316
NC(=O)c1cccc2sc(-c3ccc(OS(=O)(=O)C(F)(F)F)cc3)nc12 [Example 1, 4-[4-(aminocarbonyl)-1,3-benzothiazol-2-yl]phenyl trifluoromethanesulfonate]	45
